Laboratory results: ChEMBL document CHEMBL4476883, “Hydroxy formamide derivatives and their use” (2017)
pIC50: −log10 of the molar value.

Legend:
Tolloid-like protein 2 = target: T1, Tolloid-like protein 2 (Homo sapiens, UniProt Q9Y6L7); test: Inhibition of C-terminal Avi-6x-His epitope tagged and N-terminal human RAGE signal sequence tagged recombinant human TLL2 (26 to 1015 amino acids) expressed in CHOE1A cells incubated for 60 mins with promyostatin peptide substrate by FRET based assay; format: cell-based
T1 sequence (Q9Y6L7 whole entry): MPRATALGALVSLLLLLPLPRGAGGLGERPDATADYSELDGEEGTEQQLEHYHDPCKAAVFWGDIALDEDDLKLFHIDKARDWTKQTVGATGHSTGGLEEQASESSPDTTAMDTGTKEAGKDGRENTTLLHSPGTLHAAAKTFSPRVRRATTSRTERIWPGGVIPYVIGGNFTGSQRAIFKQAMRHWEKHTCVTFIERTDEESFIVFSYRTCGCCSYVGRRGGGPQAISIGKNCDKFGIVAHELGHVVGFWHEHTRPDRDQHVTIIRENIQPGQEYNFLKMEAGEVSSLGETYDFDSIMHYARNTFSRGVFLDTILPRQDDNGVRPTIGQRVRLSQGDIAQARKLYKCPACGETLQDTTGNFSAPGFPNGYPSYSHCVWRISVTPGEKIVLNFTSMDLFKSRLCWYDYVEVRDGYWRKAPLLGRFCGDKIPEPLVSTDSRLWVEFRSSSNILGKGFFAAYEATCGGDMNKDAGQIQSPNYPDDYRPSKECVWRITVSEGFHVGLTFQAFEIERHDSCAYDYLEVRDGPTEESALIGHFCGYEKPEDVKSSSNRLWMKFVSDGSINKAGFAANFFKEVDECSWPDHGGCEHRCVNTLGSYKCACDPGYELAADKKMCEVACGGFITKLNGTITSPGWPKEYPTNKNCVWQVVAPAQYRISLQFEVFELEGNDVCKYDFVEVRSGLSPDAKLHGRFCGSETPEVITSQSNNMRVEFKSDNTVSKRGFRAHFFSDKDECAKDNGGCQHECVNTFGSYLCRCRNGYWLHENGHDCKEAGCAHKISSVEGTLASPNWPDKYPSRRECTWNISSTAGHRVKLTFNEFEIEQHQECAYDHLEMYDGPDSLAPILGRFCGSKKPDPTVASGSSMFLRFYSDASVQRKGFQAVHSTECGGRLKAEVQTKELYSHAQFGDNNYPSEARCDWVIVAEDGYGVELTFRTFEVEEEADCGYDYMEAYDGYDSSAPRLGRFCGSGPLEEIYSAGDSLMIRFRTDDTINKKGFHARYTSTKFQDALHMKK

[1] = target: T2, Bone morphogenetic protein 1 (Homo sapiens, UniProt P13497); test: Inhibition of C-terminal FLAG-6x-His epitope tagged and N-terminal human RAGE signal sequence tagged human BMP1 (23 to 721 amino acids) expressed in CHO-E1A cells pre-incubated for 10 mins before promyostatin peptide substrate addition and measured after 60 mins using 0.5 nM BMP1 by FRET based assay; format: cell-based
T2 sequence (P13497 whole entry): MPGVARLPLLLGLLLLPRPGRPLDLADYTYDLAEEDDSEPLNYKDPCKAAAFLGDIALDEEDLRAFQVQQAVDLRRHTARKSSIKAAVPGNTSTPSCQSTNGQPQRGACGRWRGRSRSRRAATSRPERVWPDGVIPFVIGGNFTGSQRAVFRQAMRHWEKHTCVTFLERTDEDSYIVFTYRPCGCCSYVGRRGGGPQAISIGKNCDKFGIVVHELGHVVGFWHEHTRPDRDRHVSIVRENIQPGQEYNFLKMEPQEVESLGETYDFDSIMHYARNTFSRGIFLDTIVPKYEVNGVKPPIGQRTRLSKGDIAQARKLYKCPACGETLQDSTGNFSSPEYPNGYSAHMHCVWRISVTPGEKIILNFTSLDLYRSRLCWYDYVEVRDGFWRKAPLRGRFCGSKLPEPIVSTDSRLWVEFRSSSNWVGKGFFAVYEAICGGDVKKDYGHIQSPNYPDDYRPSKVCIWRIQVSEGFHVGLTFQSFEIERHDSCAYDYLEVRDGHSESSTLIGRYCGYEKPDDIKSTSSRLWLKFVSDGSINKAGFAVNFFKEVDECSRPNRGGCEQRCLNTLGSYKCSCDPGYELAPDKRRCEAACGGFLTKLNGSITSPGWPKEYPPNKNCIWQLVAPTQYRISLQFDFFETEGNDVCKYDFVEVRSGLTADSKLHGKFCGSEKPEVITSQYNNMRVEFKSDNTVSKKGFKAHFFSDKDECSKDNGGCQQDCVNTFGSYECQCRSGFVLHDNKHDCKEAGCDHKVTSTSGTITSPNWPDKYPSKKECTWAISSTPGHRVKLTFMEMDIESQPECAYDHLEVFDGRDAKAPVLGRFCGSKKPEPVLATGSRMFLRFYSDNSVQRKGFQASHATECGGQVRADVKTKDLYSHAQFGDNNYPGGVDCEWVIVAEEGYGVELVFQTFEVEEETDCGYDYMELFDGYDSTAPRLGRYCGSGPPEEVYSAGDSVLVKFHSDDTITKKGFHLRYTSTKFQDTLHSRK

[2] = Reduction in mature collagen deposition levels in human cardiac fibroblasts incubated for 24 to 48 hrs by immunostaining based assay; format: functional
Tolloid-like protein 1 = Tolloid-like protein 1 (Homo sapiens, UniProt O43897, I156V/N221S/V284A); test: Inhibition of recombinant human TLL1 I156V/N221S/V284A mutant expressed in CHOE1A cells pre-incubated for 10 mins before promyostatin peptide substrate addition and measured after 60 mins by FRET based assay; format: cell-based
Tolloid-like protein 1, sequence (O43897 148-1013 I156V/N221S/V284A limits assumed): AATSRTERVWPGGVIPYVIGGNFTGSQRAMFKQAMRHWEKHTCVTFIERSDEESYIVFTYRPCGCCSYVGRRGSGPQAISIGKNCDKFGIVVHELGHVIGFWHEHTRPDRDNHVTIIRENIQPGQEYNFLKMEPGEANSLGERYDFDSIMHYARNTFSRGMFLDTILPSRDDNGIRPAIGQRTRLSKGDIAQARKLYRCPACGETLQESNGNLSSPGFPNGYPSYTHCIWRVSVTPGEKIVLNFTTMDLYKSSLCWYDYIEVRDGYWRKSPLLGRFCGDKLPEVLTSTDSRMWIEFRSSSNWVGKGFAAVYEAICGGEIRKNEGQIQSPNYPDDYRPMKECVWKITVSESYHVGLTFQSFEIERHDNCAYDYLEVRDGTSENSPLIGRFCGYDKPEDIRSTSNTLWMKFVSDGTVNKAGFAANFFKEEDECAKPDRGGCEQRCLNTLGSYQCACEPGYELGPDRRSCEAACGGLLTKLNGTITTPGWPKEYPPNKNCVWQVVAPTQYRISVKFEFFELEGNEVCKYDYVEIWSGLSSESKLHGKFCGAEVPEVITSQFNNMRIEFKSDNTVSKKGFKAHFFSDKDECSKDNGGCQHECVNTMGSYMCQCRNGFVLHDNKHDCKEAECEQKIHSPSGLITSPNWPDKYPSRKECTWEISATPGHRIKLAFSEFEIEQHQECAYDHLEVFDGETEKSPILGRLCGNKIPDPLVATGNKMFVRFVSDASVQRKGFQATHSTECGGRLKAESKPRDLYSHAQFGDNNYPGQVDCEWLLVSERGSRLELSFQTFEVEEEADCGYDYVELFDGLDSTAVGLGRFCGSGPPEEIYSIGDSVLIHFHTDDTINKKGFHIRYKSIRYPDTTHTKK

[3] = Reduction in PICP levels in human cardiac fibroblasts incubated for 24 to 48 hrs by ELISA; format: functional
[4] = target: T2, Bone morphogenetic protein 1; test: Inhibition of C-terminal FLAG-6x-His epitope tagged and N-terminal human RAGE signal sequence tagged human BMP1 (23 to 721 amino acids) expressed in CHO-E1A cells pre-incubated for 10 mins before promyostatin peptide substrate addition and measured after 30 mins using 50 nM BMP1 by FRET based assay; format: cell-based

| pIC50 (Tolloid-like protein 2) | pIC50 [1] | pIC50 (Tolloid-like protein 1) | pIC50 [4] | Structure (SMILES) | pIC50 [2] | pIC50 [3] |
| --- | --- | --- | --- | --- | --- | --- |
| > 6.20 | > 6.90 | > 6.40 | > 6.60 | CCCCC[C@@H](C(=O)NCNC(=O)c1cccc(-c2ccc(CC(=O)O)c(OCC)c2)c1)[C@@H](CC)N(O)C=O | > 5.80 | > 4.70 |
| > 6.20 | > 6.90 | > 6.40 | > 6.60 | CCCCC[C@@H](C(=O)NCNC(=O)c1cccc(-c2ccc(CC(=O)N[C@@H](CC(=O)O)C(=O)O)c(OCC)c2)n1)[C@@H](CC)N(O)C=O | > 5.80 | > 4.70 |
| > 6.20 | > 6.90 | > 6.40 | > 6.60 | CCCCC[C@@H](C(=O)NCNC(=O)c1cccc(-c2cc(OCC)cc(C(=O)N(CC(=O)O)CC(=O)O)c2)n1)[C@@H](CC)N(O)C=O |  | > 4.70 |
| > 6.20 | > 6.90 | > 6.40 | > 6.60 | CCCCC[C@@H](C(=O)NCNC(=O)c1cccc(-c2ccc(C(=O)O)c(C(=O)O)c2)n1)[C@@H](CC)N(O)C=O |  | > 4.70 |
| > 6.20 | > 6.90 | > 6.40 | > 6.60 | CCCCC[C@@H](C(=O)NCNC(=O)c1cccc(-c2ccc(C(=O)NCP(=O)(O)O)c(OCC)c2)n1)[C@@H](CC)N(O)C=O |  | > 4.70 |
| > 6.20 | > 6.90 | > 6.40 | > 6.60 | CCCCC[C@@H](C(=O)NCNC(=O)c1ccnc(-c2ccc(C(=O)O)c(OCC)c2)n1)[C@@H](CC)N(O)C=O | > 5.80 | > 4.70 |
| > 6.20 | > 6.90 | > 6.40 | > 6.60 | CCCCC[C@@H](C(=O)NCNC(=O)c1cccc(-c2cc(O)cc(P(=O)(O)O)c2)n1)[C@@H](CC)N(O)C=O |  | > 4.70 |
| > 6.20 | > 6.90 | > 6.40 | > 6.60 | CCCCC[C@@H](C(=O)NCNC(=O)c1cccc(-c2ccc(C(=O)N[C@@H](CC(=O)O)C(=O)O)c(C)c2)n1)[C@@H](CC)N(O)C=O |  | > 4.70 |
| > 6.20 | > 6.90 | > 6.40 | > 6.60 | CCCCC[C@@H](C(=O)NCNC(=O)c1cccc(-c2ccc(C(=O)N[C@@H](CCC(=O)O)C(=O)O)c(OCC)c2)n1)[C@@H](CC)N(O)C=O |  | > 4.70 |
| > 6.20 | > 6.90 | > 6.40 | > 6.60 | CCCCC[C@@H](C(=O)NCNC(=O)c1cccc(-c2cc(OCC(=O)O)cc(C(=O)O)c2)n1)[C@@H](CC)N(O)C=O |  | > 4.70 |
| > 6.20 | > 6.90 | > 6.40 | > 6.60 | CCCCC[C@@H](C(=O)NCNC(=O)c1cccc(-c2ccc(C(=O)N[C@@H](CC(=O)O)C(=O)O)c(OCC)c2)n1)[C@@H](CC)N(O)C=O | > 5.80 | > 4.70 |
| > 6.20 | > 6.90 | > 6.40 | > 6.60 | CCCCC[C@@H](C(=O)NCNC(=O)c1cccc(-c2ccc(C(=O)N[C@@H](CC(=O)O)C(=O)O)cc2)n1)[C@@H](CC)N(O)C=O |  | > 4.70 |
| > 6.20 | > 6.90 | > 6.40 | > 6.60 | CCCCC[C@@H](C(=O)NCNC(=O)c1cccc(-c2ccc(C(=O)NCP(=O)(O)O)c(C)c2)n1)[C@@H](CC)N(O)C=O |  | > 4.70 |
| > 6.20 | > 6.90 | > 6.40 | > 6.60 | CCCCC[C@@H](C(=O)NCNC(=O)c1cccc(-c2ccc(C(=O)N[C@@H](CCC(=O)O)C(=O)O)cc2)n1)[C@@H](CC)N(O)C=O |  | > 4.70 |
| > 6.20 | > 6.90 | > 6.40 | > 6.60 | CCCCC[C@@H](C(=O)NCNC(=O)c1cccc(-c2cc(C(=O)O)cc(S(N)(=O)=O)c2)n1)[C@@H](CC)N(O)C=O | > 5.80 | > 4.70 |
|  | > 6.90 |  | > 6.60 | CCOc1cc(-c2cccc(C(=O)NCNC(=O)[C@H](CCc3ccccc3)[C@@H](CC)N(O)C=O)n2)ccc1C(=O)O | > 5.80 | > 4.70 |
| > 6.20 | > 6.90 | > 6.40 | > 6.60 | CCCCC[C@@H](C(=O)NCNC(=O)c1cccc(-c2ccc(C(=O)N(CC(=O)O)CC(=O)O)c(OCC)c2)n1)[C@@H](CC)N(O)C=O |  | > 4.70 |
| > 6.20 | > 6.90 | > 6.40 | > 6.60 | CCCCC[C@@H](C(=O)NCNC(=O)c1cncc(-c2ccc(P(=O)(O)O)c(OCC)c2)n1)[C@@H](CC)N(O)C=O | > 5.80 | > 4.70 |
| > 6.20 | > 6.90 | > 6.40 | > 6.60 | CCCCC[C@@H](C(=O)NCNC(=O)c1cccc(-c2ccc(C(=O)N[C@@H](CC(=O)O)C(=O)O)c(F)c2)n1)[C@@H](CC)N(O)C=O |  | > 4.70 |
| > 6.20 | > 6.90 | > 6.40 | > 6.60 | CCCCC[C@@H](C(=O)NCNC(=O)c1cccc(-c2cc(OCC)cc(C(=O)O)c2)n1)[C@@H](CC)N(O)C=O | > 5.80 | > 4.70 |
| > 6.20 | > 6.90 | > 6.40 | > 6.60 | CCCCC[C@@H](C(=O)NCNC(=O)c1cccc(-c2ccc(C(=O)NCP(=O)(O)O)cc2)n1)[C@@H](CC)N(O)C=O |  | > 4.70 |
| > 6.20 | > 6.90 | > 6.40 | > 6.60 | CCCCC[C@@H](C(=O)NCNC(=O)c1cccc(-c2ccc(C(=O)NCP(=O)(O)O)c(O)c2)n1)[C@@H](CC)N(O)C=O |  | > 4.70 |
| > 6.20 | > 6.90 | > 6.40 | > 6.60 | CCCCC[C@@H](C(=O)NCNC(=O)c1cccc(-c2ccc(C(=O)N[C@H](CC(=O)O)C(=O)O)cc2)n1)[C@@H](CC)N(O)C=O |  | > 4.70 |
|  | > 6.90 |  | > 6.60 | CCCCC[C@@H](C(=O)NCNC(=O)c1cccc(-c2cc(OCC)cc(C(=O)NCCN)c2)n1)[C@@H](CC)N(O)C=O | > 5.80 | > 4.70 |
